Results: patent US20230271964A1, “5-AMINO-8-(4-PYRIDYL)-[1,2,4]TRIAZOLO[4,3-C]PYRIMIDIN-3-ONE COMPOUNDS FOR USE AGAINST CANCER” (ASTRAZENECA AB, priority 2020, published 2023)

Assays:
[1] = target: human adenosine A1 receptor (Homo sapiens (Human), UniProt P30542); assay: Adenosine receptor inhibition binding assay, [3H]DPCPX, A1 receptor membranes; settings: 1 nM [3H]DPCPX, 25° C., 1 h, Ki from IC50 by Cheng-Prusoff
Method in brief: (§1)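 Membranes from BacMam-transduced HEK293 cells (0.2 µg A2A; 1.4 µg A1) incubated 1 h at 25 °C with 1 nM radioligand; A2A in 50 mM Tris-HCl pH 7.4, A1 buffer adds 100 mM NaCl, 10 mM MgCl2. Nonspecific binding: 1 µM CGS 15943 (A2A) or 1 µM DPCPX (A1). Filtration, scintillation counting; IC50 converted to Ki via Cheng-Prusoff.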

[2] = target: human adenosine A2A receptor (Homo sapiens (Human), UniProt P29274); assay: Adenosine receptor inhibition binding assay, [3H]ZM241385, HEK293 A2A receptor membranes; settings: 1 nM [3H]ZM241385, HEK293-hA2A membranes, 25° C., 1 h, Ki from IC50 by Cheng-Prusoff
human adenosine A2A receptor, sequence (P29274 whole entry): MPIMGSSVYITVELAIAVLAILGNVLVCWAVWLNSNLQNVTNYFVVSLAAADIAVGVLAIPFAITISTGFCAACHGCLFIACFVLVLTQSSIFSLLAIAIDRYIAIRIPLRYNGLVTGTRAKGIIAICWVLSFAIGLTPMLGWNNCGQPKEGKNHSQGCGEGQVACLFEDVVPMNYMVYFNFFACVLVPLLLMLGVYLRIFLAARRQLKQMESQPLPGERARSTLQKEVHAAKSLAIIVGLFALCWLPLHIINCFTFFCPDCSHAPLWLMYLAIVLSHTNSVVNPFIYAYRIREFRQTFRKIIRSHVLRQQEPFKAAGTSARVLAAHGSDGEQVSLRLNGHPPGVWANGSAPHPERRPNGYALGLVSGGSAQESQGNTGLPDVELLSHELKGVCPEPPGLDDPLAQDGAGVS
Method in brief: as §1

[3] = target: human CB-1 cannabinoid receptor (Homo sapiens (Human), UniProt P21554); assay: CB-1 receptor radioligand binding assay, [3H]CP 55940, transfected CHO cell membranes; settings: 0.5 nM [3H]CP 55940, CHO cell membranes, 120 min at 37° C.
human CB-1 cannabinoid receptor, sequence (P21554 whole entry): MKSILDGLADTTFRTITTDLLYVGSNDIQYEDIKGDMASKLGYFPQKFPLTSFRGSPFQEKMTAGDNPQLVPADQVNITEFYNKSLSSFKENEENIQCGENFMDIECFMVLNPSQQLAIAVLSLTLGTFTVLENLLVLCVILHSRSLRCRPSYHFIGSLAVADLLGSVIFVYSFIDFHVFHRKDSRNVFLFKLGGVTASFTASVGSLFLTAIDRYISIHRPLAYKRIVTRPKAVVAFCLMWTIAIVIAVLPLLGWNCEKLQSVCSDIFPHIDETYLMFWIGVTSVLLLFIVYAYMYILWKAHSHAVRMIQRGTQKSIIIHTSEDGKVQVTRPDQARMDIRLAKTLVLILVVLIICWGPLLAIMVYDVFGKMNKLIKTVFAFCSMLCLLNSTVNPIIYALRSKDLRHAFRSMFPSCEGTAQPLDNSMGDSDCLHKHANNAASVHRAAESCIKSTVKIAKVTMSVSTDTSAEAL
Procedure: Nonspecific binding is determined in the presence of 10 µM WIN 55212-2.
Following incubation, the samples are filtered rapidly under vacuum through glass fiber filters (GF/B, Packard) presoaked with 0.3% PEI and rinsed several times with an ice-cold buffer containing 50 mM Tris-HCl (pH 7.4) and 0.5% BSA using a 96-sample cell harvester (Unifilter, Packard). The filters are dried then counted for radioactivity in a scintillation counter (Topcount, Packard) using a scintillation cocktail (Microscint 0, Packard).
The standard reference compound is CP 55940 which is tested in each experiment at several concentrations to obtain a competition curve from which its IC50 is calculated.

human CB1 receptor = human CB1 receptor (Homo sapiens (Human), UniProt P21554); assay: CB1 receptor antagonism, agonist-induced cAMP modulation (HTRF) in transfected CHO cells; type: cell-based; settings: read-out: Antag IC50
human CB1 receptor, sequence (P21554 whole entry): as above
Procedure: Receptor antagonism: Evaluation of the antagonist activity of compounds at the human CB1 receptor expressed in transfected CHO cells, determined by measuring their effects on agonist-induced cAMP modulation using the HTRF detection method.
Thereafter, the reference agonist CP 55940 and the adenylyl cyclase activator NKH 477 are added at respective final concentrations of 3 nM and 3 µM.
For basal control measurements, CP 55940 is omitted from the wells containing 3 µM AM 281.
Following 20 min incubation at 37° C., the cells are lysed and the fluorescence acceptor (D2-labeled cAMP) and fluorescence donor (anti-cAMP antibody labeled with europium cryptate) are added.
After 60 min at room temperature, the fluorescence transfer is measured at λex=337 nm and λem=620 and 665 nm using a microplate reader (Rubystar, BMG). The cAMP concentration is determined by dividing the signal measured at 665 nm by that measured at 620 nm (ratio).
The standard reference antagonist is AM 281, which is tested in each experiment at several concentrations to generate a concentration-response curve from which its IC50 value is calculated.

human adenosine A1 receptor, sequence (P30542 whole entry): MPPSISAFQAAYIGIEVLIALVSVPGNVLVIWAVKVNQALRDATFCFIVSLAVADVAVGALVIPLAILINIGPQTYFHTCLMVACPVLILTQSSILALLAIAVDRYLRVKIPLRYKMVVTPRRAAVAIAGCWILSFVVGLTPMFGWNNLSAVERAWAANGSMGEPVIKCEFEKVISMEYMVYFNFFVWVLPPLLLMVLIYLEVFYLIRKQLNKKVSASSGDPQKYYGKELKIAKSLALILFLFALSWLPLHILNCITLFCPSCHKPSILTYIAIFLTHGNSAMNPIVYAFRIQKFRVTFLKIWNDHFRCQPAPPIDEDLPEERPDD

| SMILES | Ki ([1]; read-out: A1 pKi (converted)) [µM] | Ki ([2]; read-out: A2A pKi (converted)) [µM] | Ki [3] [µM] | IC50 (human CB1 receptor) [µM] | A1 pKi [1] | A2A pKi [2] |
| --- | --- | --- | --- | --- | --- | --- |
| Cc1cc(-c2c(-c3ccccc3)nc(N)n3c(=O)n(C[C@H]4CC(F)(F)CN4C)nc23)cc(C)n1 [Example 2-14, 5-amino-2-[[(2R)-4,4-difluoro-1-methyl-pyrrolidin-2-yl]methyl]-8-(2,6-dimethyl-4-pyridyl)-7-phenyl-[1,2,4]triazolo[4,3-c]pyrimidin-3-one] | 0.1 | 0.00316 | 36.4 | 35.8 |  |  |
| Cc1cc(-c2c(-c3ccccc3)nc(N)n3c(=O)n(CCN4CCCC4c4cccs4)nc23)cc(C)n1 (stereo not drawn) [Example 3-1, 5-amino-8-(2,6-dimethyl-4-pyridyl)-7-phenyl-2-[2-[2-(2-thienyl)pyrrolidin-1-yl]ethyl]-[1,2,4]triazolo[4,3-c]pyrimidin-3-one] |  |  | 29.2 | 10.1 | 7.6 | 8.9 |
| Cc1cc(-c2c(-c3ccccc3)nc(N)n3c(=O)n(CC4CCCN4Cc4ccccc4CN)nc23)cc(C)n1 (stereo not drawn) [Example 3-4, 5-amino-2-[[1-[[2-(aminomethyl)phenyl]methyl]pyrrolidin-2-yl]methyl]-8-(2,6-dimethyl-4-pyridyl)-7-phenyl-[1,2,4]triazolo[4,3-c]pyrimidin-3-one] |  |  | 76.4 | > 100 | 6.3 | 8.4 |
